In one series the target is T1, VEGFR3 (Homo sapiens, UniProt P35916).
T1 construct: purchased Invitrogen PV4129
Briefly: Kinase inhibition, Mobility Shift Assay/IMAP, VEGFR3. In kind it is biochemical. From the text: (§1) This assay directly monitored the ability of compounds to inhibit kinase phosphorylation by measuring non-phosphorylated and phosphorylated substrates in kinase reactions by using Mobility Shift Assays/IMAP™ analysis.
(§2) Read the conversion ratio data on CaliperEZ Reader II. Convert conversion rates into inhibition ratio data.
(§3) “Min” indicates the readout of the control well without the addition of enzymes; and “Max” indicates the readout of the control well with the addition of DMSO Fit IC50 values with XL Fit excel add-in version […].
(§4) X indicates the log value of compound concentration, and Y indicates the inhibition ratio (% inhibition).

Another series concerns the target T2, EGFR (Homo sapiens, UniProt P00533).
T2 construct: purchased Carna 08-115
Briefly: Kinase inhibition, Mobility Shift Assay/IMAP, EGFR. In kind it is biochemical. Summed up: (§5)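 Substrate conversion (phosphorylated vs non-phosphorylated) read by mobility shift on Caliper EZ Reader II and converted to % inhibition relative to no-enzyme and DMSO controls. IC50 fitted from % inhibition versus log compound concentration.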

A further series has as its target T3, VEGFR1 (Homo sapiens, UniProt P17948).
T3 construct: purchased Invitrogen PR6731B
Briefly: Kinase inhibition, Mobility Shift Assay/IMAP, VEGFR1. In kind it is biochemical.
Source text: as §1, §2, §3, §4

In a further series the target is VEGFR2 (Homo sapiens, UniProt P35968). Description: Kinase inhibition, Mobility Shift Assay/IMAP, VEGFR2. In kind it is biochemical. On the set-up: purchased Carna 08-191. In outline:
as §5

A further series concerns the target T4, TIE2 (Homo sapiens, UniProt Q02763).
T4 construct: purchased BPS 40270
Briefly: Kinase inhibition, Mobility Shift Assay/IMAP, TIE2. In kind it is biochemical. Summed up: as §5

The next series deals with melanin. Description: Binding capacity of compounds to melanin. Format: in vitro ADME, cuttlefish (Sepia officinalis). As to conditions: cuttlefish (Sepia officinalis), melanin suspension (1 mg/mL); 1 mg/mL melanin in PBS pH 7.4, 2 μM compound, 2 h at 37° C.; read-out: Fu % (percentage of free drug). The source says:
Pigmented eye tissues contain melanin in intracellular melanosomes. Drugs bind to melanin to varying degrees, ranging from non-binding to extensive binding. Therefore, melanin binding is an important feature that affects drug delivery and biodistribution in the eye. The binding capacity of the compound to the melanin must be considered in the development of ophthalmic drugs.
Melanin was derived from the melanin of cuttlefish (Sepia officinalis) and was commercially available from Sigma Aldrich (St Louis, MO).
First, prepare 1 mg/mL melanin suspension with PBS (pH 7.4). As a washing step for the matrix, centrifuge the suspended particles for 5 min at 3000 rpm. Resuspend the resulting particles in a fresh PBS buffer, heat to 37° C. over continuous shaking and incubate it for 1 h. Accurately pipette 2 μL of the test stock solution (0.1 mM) into 98 μL of melanin suspension (1 mg/mL) to achieve a final incubation concentration of 2 μM. Similarly, accurately pipette 2 μL of the stock solution (0.1 mM) to 98 μL of PBS buffer (containing 0.1% BSA) as a blank control sample. Incubate the samples in a shaker (80-90 rpm) for 2 h at 37° C. Then, centrifuge the samples at room temperature. Pipette 50 μL of the supernatant and add 50 μL of precipitant (containing an internal standard). After protein precipitation of all the above samples, centrifuge the samples to collect the supernatants, dilute the supernatants with water (if necessary) and inject them for analysis. At the same time, measure the positive controls, including the high-binding compounds Sunitinib and chloroquine and the low-binding compound celecoxib. Establish an LC-MS/MS method for determining compound concentrations, and calibrate the peak area ratio of analyte/internal standard (Analyte/AIS) in the measured sample by the dilution factor to take it as an alternative concentration for the sample for data processing. The binding rate (Fb) of a compound in melanin was calculated as: […]
Ctest was the concentration of the compound in the melanin-incubated sample or the peak area ratio of the test compound to the internal standard. Ccontrol was the concentration of the compound in the blank control sample or the peak area ratio of the test compound to the internal standard. […]

A short description of series [1]: Solubility test in buffer, LC-MS. In kind it is physicochemical. As to conditions: aqueous buffer, thermodynamic from solid, room temperature, shaking 8 h, pH not given (method: pH 2.0, 6.5, 7.4). On the procedure: Accurately weigh 3 portions of about 2 mg of the compound, and add appropriate volumes of buffers with the pHs of 2.0, 6.5, and 7.4 respectively to obtain a solution with a concentration of 2 mg/mL. After sonication for 10 min, fix them on a shaker and shaking for 8 h at room temperature. After shaking, sonicate for 10 min and centrifuge for 15 min at 13,000 rpm. Pipette 0.1 mL of supernatant into a new tube, shake and rinse it with 5 mL, and discard the liquid. Transfer 0.5 mL of the supernatant again to a new tube, centrifuge it for 15 min at 13,000 rpm, then collect the supernatant (if necessary, dilute with water) and analyze it by LC-MS. The sample concentrations at 3~5 points are subjected to fitting and reticle for quantification.

Converted amounts (≈) assume the structure as drawn.

Chain of VEGFR2 (P35968 790-1356 limits assumed): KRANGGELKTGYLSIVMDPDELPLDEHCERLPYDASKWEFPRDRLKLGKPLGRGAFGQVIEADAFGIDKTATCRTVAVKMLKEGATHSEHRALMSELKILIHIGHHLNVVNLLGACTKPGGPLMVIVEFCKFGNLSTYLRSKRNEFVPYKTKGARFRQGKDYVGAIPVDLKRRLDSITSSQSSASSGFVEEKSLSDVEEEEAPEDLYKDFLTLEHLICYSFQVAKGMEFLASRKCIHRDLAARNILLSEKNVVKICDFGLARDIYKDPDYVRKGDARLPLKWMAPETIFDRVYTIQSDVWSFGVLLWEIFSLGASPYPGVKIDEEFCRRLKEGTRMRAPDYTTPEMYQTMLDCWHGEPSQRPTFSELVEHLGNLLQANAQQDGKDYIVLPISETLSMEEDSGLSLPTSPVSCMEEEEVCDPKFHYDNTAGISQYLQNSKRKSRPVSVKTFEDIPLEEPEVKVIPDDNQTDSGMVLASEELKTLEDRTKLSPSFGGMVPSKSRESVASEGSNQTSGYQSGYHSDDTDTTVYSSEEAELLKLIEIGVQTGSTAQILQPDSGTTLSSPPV
T2 sequence (P00533 669-1210 limits assumed): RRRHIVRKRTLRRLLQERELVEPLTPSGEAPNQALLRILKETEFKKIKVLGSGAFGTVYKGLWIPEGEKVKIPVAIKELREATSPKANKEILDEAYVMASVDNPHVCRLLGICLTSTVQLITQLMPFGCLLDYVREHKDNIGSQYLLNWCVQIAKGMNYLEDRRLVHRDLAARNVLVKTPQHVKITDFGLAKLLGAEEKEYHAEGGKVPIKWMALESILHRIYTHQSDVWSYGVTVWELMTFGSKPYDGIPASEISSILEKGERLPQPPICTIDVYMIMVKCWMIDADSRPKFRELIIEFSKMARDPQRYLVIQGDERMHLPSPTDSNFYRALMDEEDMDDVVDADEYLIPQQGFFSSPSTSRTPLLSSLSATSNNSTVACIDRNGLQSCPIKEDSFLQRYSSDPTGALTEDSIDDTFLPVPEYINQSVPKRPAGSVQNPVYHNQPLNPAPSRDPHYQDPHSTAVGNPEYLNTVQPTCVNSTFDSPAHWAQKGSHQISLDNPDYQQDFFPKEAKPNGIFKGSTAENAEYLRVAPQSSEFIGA
T4 sequence (Q02763 23-1124): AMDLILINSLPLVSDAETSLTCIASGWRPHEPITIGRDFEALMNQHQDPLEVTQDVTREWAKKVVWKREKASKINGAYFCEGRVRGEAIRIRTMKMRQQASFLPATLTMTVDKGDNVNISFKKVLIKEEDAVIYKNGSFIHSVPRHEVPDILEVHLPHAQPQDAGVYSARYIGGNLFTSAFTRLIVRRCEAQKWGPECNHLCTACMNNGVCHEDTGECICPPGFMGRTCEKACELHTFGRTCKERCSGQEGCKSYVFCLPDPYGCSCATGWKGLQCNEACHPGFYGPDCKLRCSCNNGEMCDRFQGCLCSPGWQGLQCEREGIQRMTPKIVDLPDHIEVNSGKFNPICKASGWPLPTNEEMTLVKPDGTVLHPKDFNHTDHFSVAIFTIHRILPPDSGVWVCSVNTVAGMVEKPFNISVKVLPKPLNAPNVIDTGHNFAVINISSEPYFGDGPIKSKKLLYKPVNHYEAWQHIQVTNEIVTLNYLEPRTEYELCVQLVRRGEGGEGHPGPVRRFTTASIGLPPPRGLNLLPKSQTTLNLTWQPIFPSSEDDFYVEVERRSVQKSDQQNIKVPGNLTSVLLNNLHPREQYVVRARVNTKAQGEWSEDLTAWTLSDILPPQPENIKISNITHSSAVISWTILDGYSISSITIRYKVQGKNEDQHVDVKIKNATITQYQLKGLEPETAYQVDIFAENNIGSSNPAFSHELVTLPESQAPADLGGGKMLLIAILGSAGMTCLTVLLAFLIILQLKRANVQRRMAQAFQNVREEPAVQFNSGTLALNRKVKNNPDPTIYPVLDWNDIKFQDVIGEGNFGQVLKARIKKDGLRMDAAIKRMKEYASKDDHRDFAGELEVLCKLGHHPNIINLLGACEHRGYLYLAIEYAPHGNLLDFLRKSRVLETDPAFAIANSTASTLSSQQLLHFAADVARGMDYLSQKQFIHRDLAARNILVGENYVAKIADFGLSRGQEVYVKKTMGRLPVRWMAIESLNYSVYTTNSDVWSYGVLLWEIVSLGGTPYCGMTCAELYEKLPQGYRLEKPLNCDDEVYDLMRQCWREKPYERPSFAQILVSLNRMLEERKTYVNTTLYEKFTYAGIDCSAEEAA
T1 sequence (P35916 25-1363): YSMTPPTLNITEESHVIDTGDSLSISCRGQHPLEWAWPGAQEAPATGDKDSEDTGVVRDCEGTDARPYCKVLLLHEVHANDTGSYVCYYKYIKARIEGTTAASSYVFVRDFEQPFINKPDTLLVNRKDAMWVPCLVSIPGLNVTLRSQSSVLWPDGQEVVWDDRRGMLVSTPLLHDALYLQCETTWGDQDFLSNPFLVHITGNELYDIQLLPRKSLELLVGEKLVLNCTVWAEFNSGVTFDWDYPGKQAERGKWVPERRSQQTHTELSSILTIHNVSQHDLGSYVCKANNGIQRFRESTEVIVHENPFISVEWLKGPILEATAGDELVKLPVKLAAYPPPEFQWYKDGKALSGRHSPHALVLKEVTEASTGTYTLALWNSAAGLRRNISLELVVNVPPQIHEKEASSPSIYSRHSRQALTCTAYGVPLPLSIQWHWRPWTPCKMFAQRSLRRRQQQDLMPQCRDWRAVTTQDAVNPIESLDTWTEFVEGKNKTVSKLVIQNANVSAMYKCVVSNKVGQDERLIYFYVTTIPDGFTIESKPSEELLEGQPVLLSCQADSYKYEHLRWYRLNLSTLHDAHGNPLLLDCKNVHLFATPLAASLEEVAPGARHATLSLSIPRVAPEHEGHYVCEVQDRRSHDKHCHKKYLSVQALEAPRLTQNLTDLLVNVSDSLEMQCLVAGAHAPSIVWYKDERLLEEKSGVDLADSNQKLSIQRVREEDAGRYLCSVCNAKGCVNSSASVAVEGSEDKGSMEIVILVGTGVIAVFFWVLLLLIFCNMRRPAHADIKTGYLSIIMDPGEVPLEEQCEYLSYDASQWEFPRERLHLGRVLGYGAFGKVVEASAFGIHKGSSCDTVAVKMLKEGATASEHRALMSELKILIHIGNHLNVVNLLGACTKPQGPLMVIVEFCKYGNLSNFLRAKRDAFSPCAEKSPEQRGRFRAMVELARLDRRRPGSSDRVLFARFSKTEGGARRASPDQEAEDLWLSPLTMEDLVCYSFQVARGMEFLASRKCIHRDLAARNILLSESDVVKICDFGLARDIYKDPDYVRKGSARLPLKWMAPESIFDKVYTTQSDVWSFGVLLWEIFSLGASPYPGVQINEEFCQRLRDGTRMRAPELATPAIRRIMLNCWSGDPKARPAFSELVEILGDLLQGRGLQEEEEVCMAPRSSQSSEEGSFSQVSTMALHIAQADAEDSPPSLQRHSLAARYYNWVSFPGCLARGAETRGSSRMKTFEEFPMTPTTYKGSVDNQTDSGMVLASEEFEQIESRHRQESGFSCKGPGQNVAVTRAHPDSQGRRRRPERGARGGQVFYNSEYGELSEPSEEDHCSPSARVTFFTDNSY
T3 sequence (P17948 27-1338): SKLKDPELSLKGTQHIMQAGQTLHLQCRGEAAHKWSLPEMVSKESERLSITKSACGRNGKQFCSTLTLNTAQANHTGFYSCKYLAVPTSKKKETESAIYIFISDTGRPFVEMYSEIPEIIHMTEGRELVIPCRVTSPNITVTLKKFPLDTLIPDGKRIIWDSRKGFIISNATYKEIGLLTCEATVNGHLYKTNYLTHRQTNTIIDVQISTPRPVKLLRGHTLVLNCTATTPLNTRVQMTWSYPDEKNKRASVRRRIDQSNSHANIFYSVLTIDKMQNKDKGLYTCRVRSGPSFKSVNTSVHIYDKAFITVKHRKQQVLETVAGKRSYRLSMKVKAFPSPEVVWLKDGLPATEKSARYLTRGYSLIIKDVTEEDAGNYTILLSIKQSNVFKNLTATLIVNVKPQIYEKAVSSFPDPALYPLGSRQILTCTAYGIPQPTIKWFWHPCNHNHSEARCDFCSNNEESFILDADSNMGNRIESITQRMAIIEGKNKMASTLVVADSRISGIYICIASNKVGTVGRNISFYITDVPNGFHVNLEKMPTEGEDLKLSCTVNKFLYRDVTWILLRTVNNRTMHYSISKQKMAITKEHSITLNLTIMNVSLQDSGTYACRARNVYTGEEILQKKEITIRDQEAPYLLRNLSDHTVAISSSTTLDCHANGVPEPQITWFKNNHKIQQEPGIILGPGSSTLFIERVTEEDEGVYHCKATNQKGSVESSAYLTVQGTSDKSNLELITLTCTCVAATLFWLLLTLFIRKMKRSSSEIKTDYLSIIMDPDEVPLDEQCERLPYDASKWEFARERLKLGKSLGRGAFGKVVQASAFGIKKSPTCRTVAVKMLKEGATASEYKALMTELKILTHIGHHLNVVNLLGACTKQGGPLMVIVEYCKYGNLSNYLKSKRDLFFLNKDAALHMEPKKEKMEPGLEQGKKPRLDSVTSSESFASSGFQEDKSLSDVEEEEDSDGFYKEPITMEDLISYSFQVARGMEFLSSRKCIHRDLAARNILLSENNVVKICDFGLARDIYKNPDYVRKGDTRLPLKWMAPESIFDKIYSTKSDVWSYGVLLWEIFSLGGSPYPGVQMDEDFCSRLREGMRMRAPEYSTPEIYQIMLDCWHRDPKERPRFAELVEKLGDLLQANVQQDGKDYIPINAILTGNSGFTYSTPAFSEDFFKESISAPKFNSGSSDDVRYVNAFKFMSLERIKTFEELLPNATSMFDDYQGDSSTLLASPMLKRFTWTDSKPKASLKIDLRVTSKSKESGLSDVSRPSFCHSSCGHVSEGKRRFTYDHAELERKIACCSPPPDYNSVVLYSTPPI

The IC50 is the concentration needed to halve the response being measured. `NC(=O)c1c(OCc2cc3c(cc2F)CCO3)nsc1NC(=O)NCCN1CCCCC1` [Compound T082, 3-[(5-fluoro-2,3-dihydrobenzofuran-6-yl)methoxy]-5-[2-(1-piperidyl)ethylcarbamoylamino]isothiazole-4-carboxamide]: the IC50 on VEGFR3 amounted to 48.5 nM; at EGFR it was 15500 nM; on VEGFR1 it was 27.8 nM; on VEGFR2, 24 nM; at TIE2, 203 nM. Also, the fraction unbound at 2 h, 2 μM in the series on melanin is 0.0757.

For orientation: solubility means the concentration that dissolves in the medium under given conditions. Higher therefore signals a readily soluble substance. Consider `Cn1nc(COc2nsc(NC(=O)NCCCCN3CCCC3)c2C(N)=O)cc1Br` [Compound T022, 3-((5-bromo-1-methyl-1H-pyrazol-3-yl)methoxy)-5-(3-(4-(pyrrolidin-1-yl)butyl)ureido)isothiazole-4-carboxamide], for which the solubility at 8 h in series [1] came to 1290 µg/mL (≈ 2570 µM).

`NC(=O)c1c(OCc2ccc3c(c2F)OCC3)nsc1NC(=O)NCCCCN1CCCC1` [Compound T074, 3-((7-fluoro-2,3-dihydrobenzofuran-6-yl)methoxy)-5-(3-(4-(pyrrolidin-1-yl)butyl)ureido)isothiazole-4-carboxamide] registered a solubility at 8 h in series [1] of 133 µg/mL (≈ 278 µM). The IC50 at VEGFR2 amounted to 26.5 nM. Further, the fraction unbound at 2 h, 2 μM in the series with melanin was determined as 0.0462.

`NC(=O)c1c(OCc2cc3c(cc2F)CCO3)nsc1NC(=O)NCCCN1CC[C@@H](F)C1` [Compound T080, 3-[(5-fluoro-2,3-dihydrobenzofuran-6-yl)methoxy]-5-[3-[(3R)-3-fluoropyrrolidin-1-yl]propylcarbamoylamino]isothiazole-4-carboxamide]: the IC50 on VEGFR3 worked out at 26.1 nM; on EGFR, 8050 nM; on VEGFR1 it was 13.5 nM; at TIE2 it was 88 nM. In the series on melanin, the fraction unbound at 2 h, 2 μM is 0.0582.

`NC(=O)c1c(OCc2cc(C(=O)NC3CC3)cc(F)c2F)nsc1NC(=O)NCCCCN1CCCC1` [Compound T133, 3-[[5-(cyclopropylcarbamoyl)-2,3-difluoro-phenyl]methoxy]-5-(4-pyrrolidin-1-ylbutylcarbamoylamino)isothiazole-4-carboxamide] came in with a solubility at 8 h in series [1] of 757 µg/mL (≈ 1410 µM). Besides, the IC50 was determined as 21500 nM at EGFR and 0.5 nM on VEGFR2.

Regarding `COc1cc(COc2nsc(NC(=O)NCCCCN3CCCC3)c2C(N)=O)cc(OC)c1` [Compound T006, 3-((3,5-dimethoxybenzyl)oxy)-5-(3-(4-(pyrrolidin-1-yl)butyl)ureido)isothiazole-4-carboxamide], in series [1], the solubility at 8 h is 1170 µg/mL (≈ 2450 µM). The IC50 on EGFR was 35000 nM; on VEGFR2, 47.4 nM.

`NC(=O)c1c(OCc2ccc3c(c2)OCC3)nsc1NC(=O)NCCC1CCN(CCF)CC1` [Compound T084, 3-(2,3-dihydrobenzofuran-6-ylmethoxy)-5-[2-[1-(2-fluoroethyl)-4-piperidyl]ethylcarbamoylamino]isothiazole-4-carboxamide]: the IC50 was 37.1 nM on VEGFR3; 15800 nM at EGFR; 30.1 nM at VEGFR1; 14.1 nM at VEGFR2; 221 nM at TIE2.

Turning to `COc1cccc(COc2nsc(NC(=O)NCCCCN3CCCC3)c2C(N)=O)c1F` [Compound T030, 3-((2-fluoro-3-methoxybenzyl)oxy)-5-(3-(4-(pyrrolidin-1-yl)butyl)ureido)isothiazole-4-carboxamide], in series [1], the concentration in solution (solubility at 8 h) came to 1520 µg/mL (≈ 3260 µM). For the same compound, the IC50 is 21800 nM on EGFR and 34.8 nM at VEGFR2. Further, the fraction unbound at 2 h, 2 μM in the series with melanin was found to be 0.0232.

As for `NC(=O)c1c(OCc2cc3c(cc2F)CCO3)nsc1NC(=O)NCCN1CC[C@@H](F)C1` [Compound T081, 3-[(5-fluoro-2,3-dihydrobenzofuran-6-yl)methoxy]-5-[2-[(3R)-3-fluoropyrrolidin-1-yl]ethylcarbamoylamino]isothiazole-4-carboxamide], the IC50 on VEGFR3 turned out to be 23.9 nM; at EGFR it was 19600 nM; at VEGFR1, 21.9 nM; at VEGFR2, 16 nM. Further, the fraction unbound at 2 h, 2 μM in the series with melanin stood at 0.0632.

`NC(=O)c1c(OCc2ccc3c(c2)COC3)nsc1NC(=O)NCCCCN1CCCC1` [Compound T072, 3-((1,3-dihydroisobenzofuran-5-yl)methoxy)-5-(3-(4-(pyrrolidin-1-yl)butyl)ureido)isothiazole-4-carboxamide]: in series [1], the concentration in solution (solubility at 8 h) came to 2060 µg/mL (≈ 4480 µM). Besides, the IC50 at EGFR was 43500 nM. The fraction unbound at 2 h, 2 μM in the series on melanin was 0.0196.

Consider `NC(=O)c1c(OCc2ccc3c(c2)OCC3)nsc1NC(=O)NCCC1CCN(C2CC2)CC1` [Compound T083, 5-[2-(1-cyclopropyl-4-piperidyl)ethylcarbamoylamino]-3-(2,3-dihydrobenzofuran-6-ylmethoxy)isothiazole-4-carboxamide], for which the IC50 on VEGFR3 stood at 22.3 nM; on EGFR, 18100 nM; at VEGFR1, 25.6 nM; on VEGFR2 it was 12.7 nM; at TIE2, 164 nM. In addition, in the series with melanin, the fraction unbound at 2 h, 2 μM worked out at 0.0749.

In the case of `NC(=O)c1c(OCc2ccc(OC(F)F)c(F)c2)nsc1NC(=O)NCCCCN1CCCC1` [Compound T027, 3-((4-(difluoromethoxy)-3-fluorobenzyl)oxy)-5-(3-(4-(pyrrolidin-1-yl)butyl)ureido)isothiazole-4-carboxamide], the solubility at 8 h in series [1] is 478 µg/mL (≈ 953 µM). Also, the fraction unbound at 2 h, 2 μM in the series on melanin was 0.0421.

Regarding `NC(=O)c1c(OCc2ccc3ccoc3c2)nsc1NC(=O)NCCCCN1CCCC1` [Compound T054, 3-(benzofuran-6-ylmethoxy)-5-(3-(4-(pyrrolidin-1-yl)butyl)ureido)isothiazole-4-carboxamide], the concentration for half-maximal inhibition (IC50) is 38.8 nM at VEGFR3, 34.3 nM on VEGFR1, 17.7 nM on VEGFR2 and 157 nM at TIE2.

On to `CN1CCC(CCNC(=O)Nc2snc(OCc3ccc4c(c3F)OCC4)c2C(N)=O)CC1` [Compound T075, 3-((7-fluoro-2,3-dihydrobenzofuran-6-yl)methoxy)-5-(3-(2-(1-methylpiperidin-4-yl)ethyl)ureido)isothiazole-4-carboxamide], for which the IC50 worked out at 48.8 nM at VEGFR3, 24300 nM on EGFR, 44 nM on VEGFR1 and 23 nM on VEGFR2. The fraction unbound at 2 h, 2 μM in the series with melanin is 0.0391.

On to `CN1CCC(CCNC(=O)Nc2snc(OCc3cc(F)c4c(c3)OCC4)c2C(N)=O)CC1` [Compound T089, 3-((4-fluoro-2,3-dihydrobenzofuran-6-yl)methoxy)-5-(3-(2-(1-methylpiperidin-4-yl)ethyl)ureido)isothiazole-4-carboxamide], for which the IC50 is 9.9 nM on VEGFR3; 15100 nM at EGFR; 13.5 nM at VEGFR1; 6.77 nM on VEGFR2; 135 nM on TIE2. The fraction unbound at 2 h, 2 μM in the series on melanin is 0.0235.

For `NC(=O)c1c(OCc2cc(F)cc(C(=O)NC3CC3)c2)nsc1NC(=O)NCCCCN1CCCC1` [Compound T085, 3-[[3-(cyclopropylcarbamoyl)-5-fluoro-phenyl]methoxy]-5-(4-pyrrolidin-1-ylbutylcarbamoylamino)isothiazole-4-carboxamide], the IC50 on VEGFR3 is 10.6 nM; on EGFR it was more than 60000 nM; on VEGFR1 it was 4.95 nM; on VEGFR2, 1.7 nM; at TIE2 it was 4590 nM. Further, in the series with melanin, the fraction unbound at 2 h, 2 μM came to 0.0612.

(Values after patent US20260217698A1 (BEYANG THERAPEUTICS CO., LTD., priority 2022, published 2026).)
